Source: patent publication US10941157B2, “Pesticidal compositions and uses thereof” (Gilead Apollo, LLC, priority 2015, dated 2021)
≈ marks a conversion by molar mass, not a printed value. Read-outs that look alike come from different tables or passages of the source.

How the values were obtained:
Botrtyis cinerea (Bc) = test: In vitro pathogen growth inhibition assay, Bc; type: cell-based; settings: 48 h
Procedure, shortened: (§1)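 Spores in 17% V8 liquid medium, or 1.5 mm Rs mycelial plugs in ¼ PDB, incubated with compound; final concentration checked by OD600 for precipitation. OD readings at 24 and 48 h, blank-subtracted, plus visual ratings; value is concentration giving ≥90% growth inhibition.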

[1] = system: Phytophthora capsici (Pc); test: In vitro pathogen growth inhibition assay, Pc; type: cell-based; settings: 48 h
Procedure, shortened: (§2)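 Spores of Dm, Fv and Pc were diluted in 17% V8 liquid medium; Rs used 1.5 mm mycelial plugs in ¼ PDB. Compounds from 2.5 mg/ml DMSO stocks were combined with inoculum, growth was read by OD600 at 24 and 48 h with blank subtraction, and the reported value is the concentration giving ≥90% inhibition.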

Puccinia triticina = test: Foliar protection test for wheat leaf rust control; type: in vivo; settings: foliar application to wheat (Triticum aestivum cv. Winterhawk), evaluated 10 days later
Fusarium graminearum = type: in vivo; settings: spray on flowering Triticum aestivum cv. Samson, inoculated 24 hours after treatment, evaluated 14 days later
[2] = system: Fusarium virguliforme (Fv); test: In vitro pathogen growth inhibition assay, Fv; type: cell-based
Procedure, shortened: as §2

Rhizoctonia solani (Rs) = test: In vitro pathogen growth inhibition assay, Rs (mycelial plugs); type: cell-based; settings: Rhizoctonia solani, 48 h, mycelial plugs
Procedure, shortened: as §2

Diplodia maydis (Dm) = test: In vitro pathogen growth inhibition assay, Dm; type: cell-based; settings: Stenocarpella maydis, 48 h
Procedure, shortened: as §2

[3] = system: Fusarium moniliforme (Fm); test: In vitro pathogen growth inhibition assay, Fm; type: cell-based; settings: Fusarium verticillioides
Procedure, shortened: as §1

[4] = system: Blumeria graminis f. sp. hordei; test: Foliar protection test for barley powdery mildew control; type: in vivo; settings: foliar spray on Hordeum vulgare cv. Perry, inoculated 24 hours after treatment, evaluated 7 days later
Procedure: Plants (Hordeum vulgare cv. Perry) were grown for 6 days in 2-inch square pots containing Metromix 200 medium amended with fertilizer. […] After inoculation with the pathogen of Blumeria graminis f. sp. hordei, plants were kept at conditions of 20 to 22° C., 70% relative humidity, and 200 uM of light to facilitate infection and disease development. […] An atomizer was used for applying the solution onto both sides of the leaves until thoroughly wetted. […] At 24 hours after treatment, the plants were moved to a cooler chamber and inoculated by shaking well-colonized, untreated stock plants above the treated plants. This allowed producing a settling cloud of spores and resulting in uniform infection. Efficacy was evaluated in 7 days later by examining leaves for colonization and growth of mildew. Table 4 lists the results of barley powdery mildew control at a compound concentration of 10 ppm or lower.

[5] = system: Mycosphaerella graminicola (synthetic Septoria tritici); test: Foliar protection test for wheat septoria leaf blotch control; type: in vivo; settings: foliar spray on Triticum aestivum cv. WinterHawk, inoculated 1 hour after treatment, evaluated 16 days later
[6] = system: Collectotrichum graminicola (Cg); test: In vitro pathogen growth inhibition assay, Cg; type: cell-based; settings: 48 h
Procedure, shortened: as §1

Phakopsora pachyrhizi = test: Foliar protection test for Asian soybean rust control; type: in vivo; settings: foliar application to soybean (Glycine max AG4832), percent disease area evaluated 14 days later
Sphaerotheca fuliginea = test: Foliar protection for cucumber powdery mildew control; type: in vivo; settings: foliar spray on Cucumis sativus cv. Straight Eight, inoculated 24 hours after treatment, evaluated 7 days later
Procedure: Plants (Cucumis sativus cv. Straight Eight) were grown for 10 days in 2.5-inch square pots containing Metromix 200 medium amended with fertilizer. For propagation, plants were maintained in a growth chamber at conditions of 23 to 27° C., 16 hour light cycle, ambient humidity, and with sub-irrigation as needed. After inoculation with the pathogen of Sphaerotheca fuliginea, plants were kept at conditions of 23 to 27° C., 16 hour light cycle, 60% relative humidity, and with sub-irrigation as needed to facilitate infection and disease development. […] An atomizer was used for applying the solution onto both sides of the leaves until thoroughly wetted. […] At 24 hours after treatment, the plants were moved to a cooler chamber and inoculated by shaking well-colonized, untreated stock plants above the treated plants. This allowed producing a settling cloud of spores and resulting in uniform infection. Inoculated plants were kept near other sporulating stock plants to allow for infection of newly emerging leaves. Efficacy was evaluated in 7 days later by examining leaves for colonization and growth of mildew. Table 5 lists the results of cucumber powdery mildew control at a compound concentration of 10 ppm or lower.

Septoria tritici (St) = test: In vitro pathogen growth inhibition assay, St; type: cell-based; settings: Zymoseptoria tritici, 48 h
Procedure, shortened: as §1

[7] = ≥90% inhibition, 48 hours vs 2% DMSO control, read-out: Compound Concentration (ppm) sufficient for ≥90% inhibition of growth, Bc
[8] = ≥90% inhibition, 48 hours vs 2% DMSO control, read-out: Compound Concentration (ppm) sufficient for ≥90% inhibition of growth, Pc
[9] = ≥90% inhibition, 48 hours vs 2% DMSO control, read-out: Compound Concentration (ppm) sufficient for ≥90% inhibition of growth, Fv
[10] = ≥90% inhibition, 48 hours vs 2% DMSO control, read-out: Compound Concentration (ppm) sufficient for ≥90% inhibition of growth, Rs
[11] = ≥90% inhibition, 48 hours vs 2% DMSO control, read-out: Compound Concentration (ppm) sufficient for ≥90% inhibition of growth, Dm
[12] = ≥90% inhibition, 48 hours vs 2% DMSO control, read-out: Compound Concentration (ppm) sufficient for ≥90% inhibition of growth, Fm
[13] = ≥90% inhibition, 48 hours vs 2% DMSO control, read-out: Compound Concentration (ppm) sufficient for ≥90% inhibition of growth, Cg
[14] = ≥90% inhibition, 48 hours vs 2% DMSO control, read-out: Compound Concentration (ppm) sufficient for ≥90% inhibition of growth, St

Structure (SMILES) | IC90 (Botrtyis cinerea (Bc); [7]) | IC90 [1, 8] | Wheat Leaf Rust Control at a compound concentration of 10 ppm or lower (Puccinia triticina) | Wheat Fusarium Head Blight Control at a compound concentration of 25 ppm or lower (Fusarium graminearum) | IC90 [2, 9] | IC90 (Rhizoctonia solani (Rs); [10]) | IC90 (Diplodia maydis (Dm); [11]) | IC90 [3, 12] | Barley Powdery Mildew Control at a compound concentration of 10 ppm or lower [4] | Septoria Leaf Blotch Control at a compound concentration of 25 ppm or lower [5] | IC90 [6, 13] | Asian Soybean Rust Control at a compound concentration of 25 ppm or lower (Phakopsora pachyrhizi) | Cucumber Powdery Mildew Control at a compound concentration of 10 ppm or lower (Sphaerotheca fuliginea) | IC90 (Septoria tritici (St); [14]) | further results
COc1ccc(F)cc1[C@H](Cn1c(=O)n([C@H](C)C(=O)N(C)C(C)C)c(=O)c2c(C)c(-n3nccn3)sc21)OCCO [Compound I-090, (R)-2-(1-((R)-2-(5-fluoro-2-methoxyphenyl)-2-(2-hydroxyethoxy)ethyl)-5-methyl-2,4-dioxo-6-(2H-1,2,3-triazol-2-yl)-1,4-dihydrothieno[2,3-d]pyrimidin-3 (2H)-yl)-N-isopropyl-N-methylpropanamide] | 2 µg/mL (≈ 3.4 µM) | 2 µg/mL (≈ 3.4 µM) | AA (≥85% control of wheat leaf rust) | D (<25% control of wheat fusarium head blight) | > 0.4 µg/mL | 0.08 µg/mL (≈ 0.136 µM) | > 0.08 µg/mL | 0.08 µg/mL (≈ 0.136 µM) | A (from 70% to 84% control of barley powdery mildew) | A (from 70% to 84% control of wheat septoria leaf blotch) | 0.08 µg/mL (≈ 0.136 µM) | B (from 50 to 69% control of Asian soybean rust) | A (from 70% to 84% control of cucumber powdery mildew) | ≥ 2 µg/mL | –
COc1ccc(F)cc1[C@H](Cn1c(=O)n([C@H](C)C(=O)NC2CCC2)c(=O)c2c(C)c(-n3nccn3)sc21)OCCO [Compound I-092, (R)—N-cyclobutyl-2-(1-((R)-2-(5-fluoro-2-methoxyphenyl)-2-(2-hydroxyethoxy)ethyl)-5-methyl-2,4-dioxo-6-(2H-1,2,3-triazol-2-yl)-1,4-dihydrothieno[2,3-d]pyrimidin-3(2H)-yl)propanamide] | 0.4 µg/mL (≈ 0.682 µM) | 2 µg/mL (≈ 3.41 µM) | AA (≥85% control of wheat leaf rust) | C (from 25 to 49% control of wheat fusarium head blight) | > 0.4 µg/mL | 0.08 µg/mL (≈ 0.136 µM) | 0.4 µg/mL (≈ 0.682 µM) | 0.08 µg/mL (≈ 0.136 µM) | C (from 25 to 49% control of barley powdery mildew) | B (from 50 to 69% control of wheat septoria leaf blotch) | 0.08 µg/mL (≈ 0.136 µM) | B (from 50 to 69% control of Asian soybean rust) | AA (≥85% control of cucumber powdery mildew) | ≥ 2 µg/mL | –
COCCCO[C@@H](Cn1c(=O)n([C@H](C)C(=O)NC(C)C)c(=O)c2c(C)c(-n3nccn3)sc21)c1cc(F)ccc1OC [Compound I-094, (R)-2-(1-((R)-2-(5-fluoro-2-methoxyphenyl)-2-(3-methoxypropoxy)ethyl)-5-methyl-2,4-dioxo-6-(2H-1,2,3-triazol-2-yl)-1,4-dihydrothieno[2,3-d]pyrimidin-3 (2H)-yl)-N-isopropylpropanamide] | 0.08 µg/mL (≈ 0.133 µM) | > 50 µg/mL | C (from 25 to 49% control of wheat leaf rust) | A (from 70% to 84% control of wheat fusarium head blight) | 0.08 µg/mL (≈ 0.133 µM) | 0.08 µg/mL (≈ 0.133 µM) | > 0.4 µg/mL | 0.08 µg/mL (≈ 0.133 µM) | AA (≥85% control of barley powdery mildew) | A (from 70% to 84% control of wheat septoria leaf blotch) | 0.08 µg/mL (≈ 0.133 µM) | C (from 25 to 49% control of Asian soybean rust) | AA (≥85% control of cucumber powdery mildew) | ≥ 10 µg/mL | –
COc1ccc(F)cc1[C@H](Cn1c(=O)n([C@@H](C)C(=O)NC(C)C)c(=O)c2c(C)c(-n3nccn3)sc21)OCCO [Compound I-096, (S)-2-(1-((R)-2-(5-fluoro-2-methoxyphenyl)-2-(2-hydroxyethoxy)ethyl)-5-methyl-2,4-dioxo-6-(2H-1,2,3-triazol-2-yl)-1,4-dihydrothieno[2,3-d]pyrimidin-3 (2H)-yl)-N-isopropylpropanamide] | 2 µg/mL (≈ 3.48 µM) | 2 µg/mL (≈ 3.48 µM) | A (from 70% to 84% control of wheat leaf rust) | D (<25% control of wheat fusarium head blight) | 2 µg/mL (≈ 3.48 µM) | 0.08 µg/mL (≈ 0.139 µM) | 0.4 µg/mL (≈ 0.696 µM) | 0.08 µg/mL (≈ 0.139 µM) | B (from 50 to 69% control of barley powdery mildew) | B (from 50 to 69% control of wheat septoria leaf blotch) | 0.08 µg/mL (≈ 0.139 µM) | A (from 70% to 84% control of Asian soybean rust) | AA (≥85% control of cucumber powdery mildew) | ≥ 2 µg/mL | –
COCCO[C@@H](Cn1c(=O)n([C@H](C)C(=O)NC(C)C)c(=O)c2c(C)c(-n3nccn3)sc21)c1cc(F)ccc1OC [Compound I-171, (R)-2-(1-((R)-2-(5-fluoro-2-methoxyphenyl)-2-(2-methoxyethoxy)ethyl)-5-methyl-2,4-dioxo-6-(2H-1,2,3-triazol-2-yl)-1,4-dihydrothieno[2,3-d]pyrimidin-3 (2H)-yl)-N-isopropylpropanamide] | – | – | B (from 50 to 69% control of wheat leaf rust) | C (from 25 to 49% control of wheat fusarium head blight) | – | – | – | – | AA (≥85% control of barley powdery mildew) | AA (≥85% control of wheat septoria leaf blotch) | – | A (from 70% to 84% control of Asian soybean rust) | AA (≥85% control of cucumber powdery mildew) | – | IC90 (Botrtyis cinerea (Bc); ≥90% growth inhibition, 48 hours, vs 2% DMSO control, read-out: Compound Concentration (ppm) sufficient for ≥90% inhibition of Bc): 0.08 µg/mL (≈ 0.136 µM); IC90 ([1]; ≥90% growth inhibition, 48 hours, vs 2% DMSO control, read-out: Compound Concentration (ppm) sufficient for ≥90% inhibition of Pc): ≥ 10 µg/mL; IC90 ([2]; ≥90% growth inhibition, 48 hours, vs 2% DMSO control, read-out: Compound Concentration (ppm) sufficient for ≥90% inhibition of Fv): ≥ 0.4 µg/mL; IC90 (Rhizoctonia solani (Rs); ≥90% growth inhibition, 48 hours, vs 2% DMSO control, read-out: Compound Concentration (ppm) sufficient for ≥90% inhibition of Rs): 0.08 µg/mL (≈ 0.136 µM); IC90 (Diplodia maydis (Dm); ≥90% growth inhibition, 48 hours, vs 2% DMSO control, read-out: Compound Concentration (ppm) sufficient for ≥90% inhibition of Dm): 0.08 µg/mL (≈ 0.136 µM); IC90 ([3]; ≥90% growth inhibition, 48 hours, vs 2% DMSO control, read-out: Compound Concentration (ppm) sufficient for ≥90% inhibition of Fm): 0.08 µg/mL (≈ 0.136 µM); IC90 ([6]; ≥90% growth inhibition, 48 hours, vs 2% DMSO control, read-out: Compound Concentration (ppm) sufficient for ≥90% inhibition of Cg): 0.08 µg/mL (≈ 0.136 µM); IC90 (Septoria tritici (St); ≥90% growth inhibition, 48 hours, vs 2% DMSO control, read-out: Compound Concentration (ppm) sufficient for ≥90% inhibition of St): ≥ 2 µg/mL
